{"source": "patent US20110008801A1", "about": "“METHODS FOR MEASURING CELL-CELL OR CELL-MATRIX ADHESIVE FORCES AND COMPOUNDS FOR DISRUPTING ADHESIVE FORCES IN BIOLOGICAL SYSTEMS” (Worcester Polytechnic Institute, priority 2006, published 2011)", "origin": "cited, not measured here", "tested_on": "UPEC, type 1 and P fimbriated E. coli", "data": [{"compound": "O=C(CO)[C@@H](O)[C@H](O)[C@H](O)CO", "note": "[fructose]", "values": [{"measurement": "adhesion of fimbriated E. coli", "result": "inhibited the adhesion of bacteria with type 1 fimbriae only"}]}]}
